The structures appear in SMILES notation.

The nature of data set [1]: Plasma and brain distribution profile in mice. The conditions noted are these: 1 mg/kg, intravenous and peroral.
Text: Animals All mice used were 9–15 weeks old wild-type BALB/c mice bred in the Laboratory of Animal Genomics at the Faculty of Veterinary Medicine, University of Ljubljana. For intravenous administration, 4 males and one female were additionally purchased from Envigo RMS Holding Corp. Mice were conventionally bred in open polycarbonate cages (Tecniplast, Buguggiate, Italy) and provided with wood chip bedding (Lignocel®, Rettenmaier and Sons, Germany). Mice were kept under standard conditions, i.e., a 12:12 dark–light cycle (LED, CCT 3000 K, ≤ 25 lux above the cage), at temperature 21–24 °C, and 50%–60% humidity. They were fed irradiated rodent diet with minimal levels of phytoestrogens (Teklad global 16% protein rodent diet®, BN 2916, Envigo, Udine, Italy) and had access to drinkable tap water ad libitum.
For each time point, 4 mice, two females and two males, were used. A total of 24 animals were used (n = 24) for each route of administration. […] Peroral administration was performed via flexible plastic feeding tubes (20G × 30 mm, Instech Laboratories, USA) by gavage, with volume dose of 200 μL/20 g body weight. Intravenous administration into the tail vein was performed under isoflurane inhalation anesthesia (Isoflurin®, VetPharma, Spain) using a syringe (INSULIN100, 29G × 1/2″, 12.7 mm, CHINS00329, Chirana T. Injecta, a.s., Slovakia) with a volume dose of 150 μL. […]
Data set [2] can be described thus: Hydrolysis of 8 in human plasma. It is filed as in vitro ADME. The text has this: See Supporting Information Tables S4.
Data set [3] relates to ICR mice icv-injected with Aβ1–42. Nature of the data set: Morris water maze, mice model with icv-injection of Aβ1–42. In kind it is in vivo. The conditions noted are these: 1–5 mg/kg, ip, once a day; comparable to rivastigmine 4 (1 mg/kg, ip). As to the method:
Mice model with icv-injection of Aβ1–42 The experiments were performed using ICR male mice (8–10 weeks old, weight 18–20 g), which were purchased from Shanghai Bikai Animal Breeding Factory (Shanghai, China). Animals were housed in cages (6 mice per cage) at a constant temperature of 25±2 °C, humidity of 55%±10% and a light/dark (12:12) cycle. The mice had unlimited access to food and water prior to the experiment. Specified conditions for the maintenance of mice were ensured throughout the experiments, including tree bedding (Yizheng Anlimao Biotechnology Co., Ltd., China) and lab feed (Zimao, China). For behavioural tests, mice were selected randomly, each group consisted of 6 mice. The experiments were performed between 9 am and 3 pm.
According to the literature procedure, recombinant human hexafluoroisopropanol-pretreated Aβ1–42 from Merck Millipore (Darmstadt, Germany) was dissolved in 1% DMSO, diluted with saline to the final concentration of 2 mg/mL, and incubated for 72 h to form oligomers. […]
Behavioural assays The Morris water maze was placed in a lighted room at 25 °C, and it was divided into four equal quadrants. […] The time spent searching for the missing platform was recorded by Xeye Aba image processing system (Beijing Zhongshi Dichuang Technology Development Co., Ltd.) and analysed by GraphPad Prism 5.

Another data set relates to BALB/c mice. Nature of the data set: Acute in vivo toxicity. The text has this: All mice used were 9–15 weeks old wild-type BALB/c mice bred in the Laboratory of Animal Genomics at the Faculty of Veterinary Medicine, University of Ljubljana. For intravenous administration, 4 males and one female were additionally purchased from Envigo RMS Holding Corp. Mice were conventionally bred in open polycarbonate cages (Tecniplast, Buguggiate, Italy) and provided with wood chip bedding (Lignocel®, Rettenmaier and Sons, Germany). Mice were kept under standard conditions, i.e., a 12:12 dark–light cycle (LED, CCT 3000 K, ≤ 25 lux above the cage), at temperature 21–24 °C, and 50%–60% humidity. They were fed irradiated rodent diet with minimal levels of phytoestrogens (Teklad global 16% protein rodent diet®, BN 2916, Envigo, Udine, Italy) and had access to drinkable tap water ad libitum. The in vivo study was evaluated by the National Ethics Committee for Animal Experiments and approved by the Veterinary Administration of the Republic of Slovenia; license number document no. U34401-10/2021/8, U34401-10/2021/13, and U34401-10/2021/1.
According to the OECD guidelines for acute toxicity testing, compound 8 was initially tested at 10 mg/kg dosage (10-fold the intended therapeutic dose (1 mg/kg)) in 3 female mice and repeated on 3 additional animals. […] After this fasting period, the animals were weighed and compound 8 was administered by oral gavage at 200 μL/20 g body weight using flexible plastic feeding tubes (20G × 30 mm, Instech Laboratories, USA). After administration, the animals were not fed for an additional hour. The mice were then observed regularly for the first 24 h, with particular attention paid to the first 4 h, and then daily for a total of 14 days, with attention paid to the changes in respiratory rate, heart rate, skin and fur, eyes and mucous membranes, behavioural patterns, and especially to the acute CNS toxicity symptoms (tremors, twitching, salivation, diarrhoea, lethargy, sleep, coma). At the end of the 14-day observation period, all experimental animals were euthanized with CO2 and cervical dislocation.

Broadly, the half-life is the time in which the quantity being followed falls by half. Higher therefore signals slow loss. Regarding `CCN(CC)C(=O)n1cnc(C2(CC)Cc3ccccc3C2)c1` [Compound 8, N,N-Diethyl-4-(2-ethylindan-2-yl)-1H-imidazole-1-carboxamide], the “blood–brain barrier permeation” value in data set [1] is listed as “quickly permeated the blood–brain barrier”. Also, in data set [2] (control experiment, plasma pre-treated with BChE-selective covalent inhibitor isoOMPA), the “8 present after 24 h” value was greater than 85%. This molecule gave a half-life at 20 μg/L in data set [2] (human, plasma, 37 °C, nominal starting concentration 20 μg/L) of 5 h. In addition, in data set [3], the “performance in Morris water maze” value is “outperformed saline-treated mice (model)”. Moreover, the “effects in preliminary safety testing” value in the data set with BALB/c mice (1 mg/kg p.o., mice) is listed as “no effects were observed”. In addition, in the data set with BALB/c mice (10 mg/kg p.o., 14-day observation), the survival result is “All animals survived”. In the data set on BALB/c mice (10 mg/kg p.o., mice), the “acute cholinergic side effects (salivation, tremors)” value was “No acute cholinergic side effects”; the “effects in preliminary safety testing” value is “some adrenergic symptoms”; the “onset of symptoms after administration” value was 15 to 30 min; the “time after which all effects subsided” value was 4 to 5 h.

The values are drawn from paper PMC12491715 (Acta Pharmaceutica Sinica. B, 2025).
